{
  "source": "paper PMC6974970",
  "about": "(Annals of Clinical Microbiology and Antimicrobials, 2020)",
  "assay": "Pharmacokinetic monitoring of plasma LPV and RTV (HPLC/MS–MS) in TB/HIV co-infected patients on LPV/RTV plus rifabutin",
  "format": "in vivo, human",
  "conditions": "for concentration: read-out: C0 (plasma drug concentration before the morning dose); for Tmax, individual patients: unit from Table 2; for AUC(0-t): read-out: AUC0–12h; for concentration at 12 h: read-out: C12 (plasma drug concentration 12 h post-dose); for C1, individual patients: individual plasma concentration at 1 h; for C2, individual patients: individual plasma concentration at 2 h; for C3, individual patients: individual plasma concentration at 3 h; for C4, individual patients: individual plasma concentration at 4 h; for C6, individual patients: individual plasma concentration at 6 h; for C8, individual patients: individual plasma concentration at 8 h; for C12, individual patients: individual plasma concentration at 12 h; for C0, individual patients: individual plasma concentration before dose, per patient",
  "method": "This was a pharmacokinetic study based on the use of LPV and RTV in HIV and tuberculosis co-infected adults. They were being treated with rifabutin 150 mg thrice weekly or rifabutin 300 mg thrice weekly.\nThe patients were participating in the RIFLOPI study registered on PACTR201310000629390. They were recruited from the Bogodogo and Kossodo district hospitals in Ouagadougou from May 2013 to December 2015. Study inclusion criteria were that the patients were between 18 and 60 years of age, HIV-1 infected with pulmonary tuberculosis confirmed or suspected. […] The 2 weeks minimum delay comes from the time frame of building up full induction effect. The participating patients were divided into two groups. The first group (RBT 150 mg thrice weekly) consisted of nine patients on antiretroviral and anti-tuberculosis treatment including LPV (LPV/RTV 400/100 mg + 2INTI) twice daily in combination with rifabutin 150 mg thrice weekly and standard ethambutol–isoniazid–pyrazinamide. The second group (RBT 300 mg thrice weekly) consisted of seven patients treated with (LPV/RTV 400/100 mg + 2INTI) twice daily in combination with rifabutin 300 mg thrice weekly and standard ethambutol–isoniazid–pyrazinamide. […] Each patient took a daily dose of cotrimoxazole to prevent opportunistic infections associated with HIV.\nPharmacokinetic monitoring was performed after 2 weeks of combined LPV/RTV and RBT treatment. On the day before pharmacokinetic monitoring, patients were admitted and fasted from midnight onwards. The pharmacokinetic assessment was conducted on a day when a dose of RBT was taken. The first measure of the pharmacokinetic monitoring (time zero) was performed on an empty stomach before taking the daily dose of RBT and LPV/RTV. After the first blood sampling, patients immediately (within 5 min) took their rifabutin and LPV/RTV regimen. Subsequent blood samples for pharmacokinetic monitoring were collected at 1, 2, 3, 4, 6, 8 and 12 h after combined drug ingestion. Breakfast (a sandwich and water) was served to the patients 2 h after drug ingestion.\nTwo to three millilitres of blood was collected in a heparinized primary vial and centrifuged at 3000 rpm for 10 min within 1 h of collection. The plasma was stored at − 20 °C until transportation to the laboratory for the pharmacokinetic analysis.\nA high-performance liquid chromatography–mass spectrometry (HPLC/MS–MS) assay previously described by Moyer et al. was used to determine the LPV and RTV plasma concentrations at the Service of Clinical Pharmacology (IRCCS S Matteo, Pavia, Italy). The limit of quantification was 0.05 µg/mL for both drugs. The assay was validated in accordance with the European Medicines Agency (EMA) “Guidelines on bioanalytical method validation. The areas under the plasma concentration–time curve (AUC) were calculated by using the linear trapezoidal rule.\nData were entered using EpiData (http://www.epidata.dk) and Excel and analysed with Stata, version 13 (https://www.stata.com, StataCorp LP; College Station, TX, USA). Descriptive statistics were used to describe the patient’s characteristics and to calculate the frequencies, proportions and medians with interquartile intervals. Statistical comparisons were made using Fisher’s exact test with 5% set as the significance level. For the LPV and RTV pharmacokinetic profile, we determined for each patient the Cmax (peak concentration measured (µg/mL)), the Ctrough (drug plasma concentration measured just prior to administration of the drug dose (µg/mL)), the Tmax (time for Cmax), the area under the curve during a dosing interval (AUC0–12 = plasma concentration * time (µg × h/mL) and the apparent clearance (CL/F, true clearance divided by the true absolute bioavailability).",
  "key": {"[1]": {"conditions": "first group RBT 150 mg TPW, listed as RTV"}, "[2]": {"conditions": "human, plasma, oral, LPV/RTV 400/100 mg twice daily with RBT 150 mg TPW (n = 9), median and IQR"}, "[3]": {"conditions": "human, plasma, oral, LPV/RTV 400/100 mg twice daily with RBT 300 mg TPW (n = 7), median and IQR"}, "[4]": {"conditions": "second group RBT 300 mg TPW, listed as RTV"}},
  "note": "Several values for one entry are separate records, joined by “and”; a condition that tells them apart may be missing. Identical values can stand only once. Entries after “also recorded” stand apart in the source; their conditions may differ. Like-named read-outs stand apart in the source and are kept apart here.",
  "data": [
    {"compound": "CC(C)c1nc(CN(C)C(=O)N[C@H](C(=O)N[C@@H](Cc2ccccc2)C[C@H](O)[C@H](Cc2ccccc2)NC(=O)OCc2cncs2)C(C)C)cs1", "note": "[Ritonavir, ritonavir]", "values": [
      {"measurement": "concentration", "setting": "LPV/RTV 400/100 mg twice daily with RBT 150 mg TPW (arm A, n = 9), median and IQR, plasma", "result": 2100, "unit": "ng/mL"},
      {"measurement": "concentration", "setting": "LPV/RTV 400/100 mg twice daily with RBT 300 mg TPW (arm B, n = 7), median and IQR, plasma", "result": 1600, "unit": "ng/mL"},
      {"measurement": "AUC0–12, individual patients", "setting": "[1]", "result": "10.8 µg·h/mL and 23.5 µg·h/mL and 14.8 µg·h/mL and 7.8 µg·h/mL and 8.9 µg·h/mL and 12.8 µg·h/mL and 12.2 µg·h/mL and 18.5 µg·h/mL"},
      {"measurement": "Cl, individual patients", "setting": "[1]", "result": "0.17 L/h/kg and 0.08 L/h/kg and 0.11 L/h/kg and 0.25 L/h/kg and 0.19 L/h/kg and 0.18 L/h/kg and 0.15 L/h/kg"},
      {"measurement": "Cmax, individual patients", "setting": "[1]", "result": "3.6 µg/mL and 2.9 µg/mL and 1.28 µg/mL and 1.86 µg/mL and 2.26 µg/mL and 2.74 µg/mL and 3.16 µg/mL"},
      {"measurement": "Tmax, individual patients", "setting": "first group RBT 150 mg TPW", "result": 3, "unit": "h"},
      {"measurement": "Tmax, individual patients", "setting": "[1]", "result": "1 h and 4 h and 6 h"},
      {"measurement": "Cmax", "setting": "human, plasma, oral, 150 mg, first group RBT 150 mg TPW, read-out: Cmax, individual patients", "result": 1910, "unit": "ng/mL"},
      {"measurement": "AUC(0-t)", "setting": "[2]", "result": 12700, "unit": "ng·h/mL"},
      {"measurement": "concentration at 12 h", "setting": "[2]", "result": 1700, "unit": "ng/mL"},
      {"measurement": "Cmax", "setting": "human, plasma, oral, LPV/RTV 400/100 mg twice daily with RBT 150 mg TPW (n = 9), median and IQR, read-out: Cmax", "result": 2700, "unit": "ng/mL"},
      {"measurement": "Tmax", "setting": "[3]", "result": 2, "unit": "h"},
      {"measurement": "AUC(0-t)", "setting": "[3]", "result": 6600, "unit": "ng·h/mL"},
      {"measurement": "concentration at 12 h", "setting": "[3]", "result": 600, "unit": "ng/mL"},
      {"measurement": "CL/F", "setting": "human, plasma, oral, LPV/RTV 400/100 mg twice daily with RBT 300 mg TPW (n = 7), median and IQR, read-out: CL (apparent clearance, CL/F) (converted)", "result": 4.83, "unit": "mL/min/kg"},
      {"measurement": "Cmax", "setting": "human, plasma, oral, LPV/RTV 400/100 mg twice daily with RBT 300 mg TPW (n = 7), median and IQR, read-out: Cmax", "result": 1500, "unit": "ng/mL"},
      {"measurement": "C1, individual patients", "setting": "[1]", "result": "1.91 µg/mL and 3.8 µg/mL and 3.1 µg/mL and 0.4 µg/mL and 1.86 µg/mL and 2 µg/mL"},
      {"measurement": "C1, individual patients", "setting": "[4]", "result": "Low and 0.37 µg/mL and 1.97 µg/mL and 2.14 µg/mL and 1.64 µg/mL and 1.5 µg/mL"},
      {"measurement": "C2, individual patients", "setting": "[1]", "result": "1.72 µg/mL and 3.6 µg/mL and 2.6 µg/mL and 1.7 µg/mL and 2.5 µg/mL and 2.24 µg/mL"},
      {"measurement": "C2, individual patients", "setting": "[4]", "result": "1 µg/mL and 0.4 µg/mL and 0.8 µg/mL and 2.22 µg/mL and 2.43 µg/mL and 1.9 µg/mL and 1.12 µg/mL"},
      {"measurement": "C3, individual patients", "setting": "[1]", "result": "1.65 µg/mL and 3.5 µg/mL and 2.9 µg/mL and 0.64 µg/mL and 0.4 µg/mL and 1.81 µg/mL"},
      {"measurement": "C3, individual patients", "setting": "[4]", "result": "1.33 µg/mL and 0.3 µg/mL and 0.8 µg/mL and 1.41 µg/mL and 2.4 µg/mL and 1.9 µg/mL and 1.2 µg/mL"},
      {"measurement": "C4, individual patients", "setting": "[1]", "result": "1.2 µg/mL and 2.7 µg/mL and 1.7 µg/mL and 1.28 µg/mL and 0.5 µg/mL and 2.26 µg/mL"},
      {"measurement": "C4, individual patients", "setting": "[4]", "result": "1.44 µg/mL and 0.38 µg/mL and 0.9 µg/mL and 0.95 µg/mL and 1.67 µg/mL and 2 µg/mL and 1 µg/mL"},
      {"measurement": "C6, individual patients", "setting": "[1]", "result": "1.64 µg/mL and 3.3 µg/mL and 1.5 µg/mL and 0.7 µg/mL and 1 µg/mL"},
      {"measurement": "C6, individual patients", "setting": "[4]", "result": "1.22 µg/mL and 0.3 µg/mL and 0.8 µg/mL and 1.45 µg/mL and 1.3 µg/mL and 2.5 µg/mL and 0.5 µg/mL"},
      {"measurement": "C8, individual patients", "setting": "[1]", "result": "1.24 µg/mL and 2.8 µg/mL and 1.2 µg/mL and 2.4 µg/mL and 1 µg/mL and 1.5 µg/mL"},
      {"measurement": "C8, individual patients", "setting": "[4]", "result": "1.1 µg/mL and 0.28 µg/mL and 0.9 µg/mL and 0.66 µg/mL and 1 µg/mL and 2 µg/mL and 0.13 µg/mL"},
      {"measurement": "C12, individual patients", "setting": "[1]", "result": "1.1 µg/mL and 3.6 µg/mL and 0.6 µg/mL and 0.2 µg/mL and 1.33 µg/mL and 1.7 µg/mL"},
      {"measurement": "C12, individual patients", "setting": "[4]", "result": "0.62 µg/mL and low and 0.6 µg/mL and 0.53 µg/mL and 0.7 µg/mL and 1.86 µg/mL and Low"},
      {"measurement": "C0, individual patients", "setting": "[1]", "result": "1.85 µg/mL and 4.11 µg/mL and 3.1 µg/mL and 1.2 µg/mL and 2.1 µg/mL and 1.43 µg/mL"},
      {"measurement": "C0, individual patients", "setting": "[4]", "result": "below the limit of quantification and Low and 0.41 µg/mL and 0.2 µg/mL and 2.72 µg/mL and 1.84 µg/mL and 1.55 µg/mL and 2.3 µg/mL"},
      {"measurement": "reduction of plasma concentrations, RBT 300 mg versus RBT 150 mg", "setting": "patients receiving RBT 300 mg TPW compared to RBT 150 mg TPW, listed as RTV", "result": "nearly halved; also recorded: nearly half"},
      {"measurement": "Cl, individual patients", "setting": "[4]", "result": "0.39 L/h/kg and 0.81 L/h/kg and 0.54 L/h/kg and 0.16 L/h/kg and 0.20 L/h/kg and 0.15 L/h/kg and 0.29 L/h/kg"},
      {"measurement": "Tmax, individual patients", "setting": "[4]", "result": "4 h and 6 h and 1 h"}
    ]}
  ]
}
